Where two headings read alike, the source gives them in different places.

For series [1], the system named is HeLa cells. Kind of series: Cell viability assay, inhibition of SO1861-mediated endosomal escape by polymeric structures (Example 19). The series is classed as cell-based. Particulars: SO1861 series + […] dianthin-EGF, 500 nM PAMAM (derivative) or chloroquine, 667 nM dendron.
Another series relates to A431 cells. Type of series: cell-based, human. Particulars: chloroquine coadministration, with cetuximab-saporin (FIG. 52). As for the experimental part:
Cells were seeded in a 96 well plate at 5.000-10.000 c/w in 100 μL/well and incubated overnight at 37° C. […] The media was removed from the cell culture plate and replaced by 180 μL culture media, followed by the addition of 20 μL treatment-mix/well. […] In the case that endosomal acidification inhibitors (chloroquine (Sigma Aldrich) or bafilomycin A1 (Enzo Life Sciences)) were used, the cell culture media in step 1 of treatment was replaced by 180 μL media containing 1 μM chloroquine or 0.2 μM bafilomycin A1. The plate was incubated for 1 hour at 37° C., before the 10× treatment-mix samples were added. The remaining incubation and treatment steps were performed according to standard procedures known in the field.

Series [2] deals with HeLa cells. Kind of series: Cell-based bioassay of chemically modified SO1861 with dianthin-EGF (Example 8). Here is the method: HeLa cells were incubated for 72 h with the following constructs and cell viability before and after the 72 h-incubation was assessed. In the experiments, cells were exposed to 1.5 μM dianthin-EGF conjugate. A negative control were cells incubated with buffer vehicle and 10 microgram/ml saponin, without dianthin-EGF. Cell viability was set to 100% for the control in which both saponin and EGF-dianthin were omitted. […] Cell viability after 72 h was essentially 0%. For the chemically modified saponin variants, 10 microgram/ml saponin was tested in combination with 1.5 μM dianthin-EGF.

The test system of series [3] is EGFR expressing cells (e.g. A431, HeLa). The series is classed as cell-based. The arrangement: key: Cell killing activity (+ or −); Cell killing activity (+ or −). From the text: The saponin is either linked to the ligand directly, or via a (cleavable) linker, via a scaffold, a carrier protein, etc., etc.
The nature of series [4]: pH dependent hydrolysis of the hydrazone bond (MALDI-TOF-MS). Type of series: physicochemical. Particulars: HCl solution at pH 3.
The test system of another series is mammalian cells. Nature of the series: Cell-based bioassay of endosomal escape enhancement by QS-21. Particulars: 2.5 microgram/ml; effector moiety EGF-dianthin. From the text: The effector moiety exposed to the cells was EGF-dianthin.
A further series has as its system NIH-3T3 cells. Particulars: saporins; cited from earlier work.
For series [5] the following is noted: combinatory treatment with saponins; cited from earlier work.
In series [6] the test system is SK-BR-3, JIMT-1, MDA-MB-468, A431, CaSki, HeLa, A2058, BT-474. Nature of the series: Relative cell viability, mAb / toxin / mAb-toxin monotherapy (FIG. 11). Type of series: cell-based. The arrangement: dose or concentration left out as unconfirmed. Particulars: panel of cell lines.
Method: After treatment the cells were incubated for 72 hr at 37° C. before the cell viability was determined by a MTS-assay, performed according to the manufacturer's instruction (CellTiter 96® AQueous One Solution Cell Proliferation Assay, Promega). Briefly, the MTS solution was diluted 20× in DMEM without phenol red (PAN-Biotech GmbH) supplemented with 10% FBS (PAN-Biotech GmbH). […] Subsequently, the optical density at 492 nm was measured on a Thermo Scientific Multiskan FC plate reader (Thermo Scientific). For quantification the background signal of ‘medium only’ wells was subtracted from all other wells, before the ratio of untreated/treated cells was calculated, by dividing the background corrected signal of untreated wells over the background corrected signal of the treated wells.

Take `CCN(CC)CCCC(C)Nc1ccnc2cc(Cl)ccc12` (centres unmarked) [chloroquine]: in the series with HeLa cells [1], the “inhibition of SO1861-mediated endosomal escape of the targeted toxin (in words)” value is recorded as “inhibit the SO1861-mediated endosomal escape of the targeted toxin”. As to `CC(=O)OC1C(C)OC(OC2C(C)OC(OC(=O)[C@]34CCC(C)(C)CC3C3=CCC5[C@@]6(C)CC[C@H](OC7OC(C(=O)O)C(O)C(OC8OCC(O)C(O)C8O)C7OC7OC(CO)C(O)C(O)C7O)[C@@](C)(/C=N/NC(=O)CCCCCN7C(=O)C=CC7=O)C6CC[C@@]5(C)[C@]3(C)C[C@H]4O)C(OC3OC(C)C(OC4OCC(O)C(OC5OC(CO)C(O)C(O)C5O)C4O)C(O)C3O)C2O)C(O)C1OC1OCC(O)C(O)C1O` (some centres unmarked) [SO1861-EMCH], the “activity when endosomal acidification is blocked (in words)” value in the series on A431 cells is “strongly reduces the activity”. Besides, the “cell viability (in words)” value in the series with HeLa cells [2] is “reduced cell viability”. Besides, the Cell killing activity result is reported as “+” in series [3] (10 μg/ml SO1861 (conjugate) + […] EGFdianthin) and “−” in [3] (10 μg/ml SO1861 (conjugate), without EGFdianthin). Moreover, the “hydrolysis of the hydrazone bond (in words)” value in [4] is “responsive towards hydrolysis and gets cleaved”. QS-21: the “endosomal escape enhancement (in words)” value with mammalian cells is recorded as “capable of enhancing endosomal escape”. For the compound helianthoside, the “enhancing effect on toxin toxicity (in words)” value in the series on NIH-3T3 cells is listed as “do hardly have any positive effect”. Take `CC1(C)[C@@H](O[C@H]2O[C@H](C(=O)O)[C@@H](O)[C@H](O)[C@H]2O[C@@H]2O[C@H](C(=O)O)[C@@H](O)[C@H](O)[C@H]2O)CC[C@]2(C)[C@H]3C(=O)C=C4[C@@H]5C[C@@](C)(C(=O)O)CC[C@]5(C)CC[C@@]4(C)[C@]3(C)CC[C@@H]12` [glycyrrhizic acid]: the “enhancing effect on toxin toxicity (in words)” value with NIH-3T3 cells is “do hardly have any positive effect”. Regarding Pseudomonas exotoxin A: bacterial toxin, the “enhancement of cytotoxicity by saponins (in words)” value in series [5] was “remained unaffected”.

Turning to saporin, the “relative cell viability (in words)” value in [6] was “do not or hardly have any influence on cell viability”.

Source of the values: patent publication US20220249674A1, “BIOACTIVE SAPONIN LINKED TO A FUNCTIONAL MOIETY” (priority 2019, published 2022).
